Assay results published in EP4810492A1, “NMT INHIBITOR, PREPARATION METHOD THEREFOR, AND USE THEREOF” (Nanjing Synnocare Pharmaceutical Technology Co., Ltd., priority 2023, dated 2025).
Read-outs that look alike come from different tables or passages of the source.

Tests used:
MV-4-11 cells = test: Anti-proliferative activity against MV-4-11 cells (cell viability chemiluminescence); type: cell-based; conditions: MV-4-11 human monocytic leukemia cells, three days of exposure
Protocol: This study utilized a cell proliferation assay to analyze the cytotoxicity of MV-4-11 human monocytic leukemia cells after three days of exposure to NMT1 inhibitors. The MV-4-11 cell line was purchased from Nanjing Cobuilder Biotechnology Co., Ltd., and cultured in IMDM medium (Viva cell) in an incubator (Thermo) at 37 °C with 5% CO2. In this experiment, NMT1 inhibitors were dissolved in DMSO to obtain 600 µM stock solutions. Dose-response solutions were prepared with a top endpoint compound concentration of 3 µM, followed by three-fold serial dilutions in DMSO, totaling eight data points. The final concentration of DMSO was 0.5%.
MV-4-11 cells were seeded into a white 96-well plate, 80 µL of cell suspension per well, containing 6000 MV-4-11 cells. The cell plate was placed in the CO2 incubator for overnight culture. Then, 20 µL of NMT1 inhibitor solutions at different concentrations were added to the wells. The 96-well plate was placed back into the incubator for three days. Another cell plate was prepared, and the signal was read on the day of drug addition to serve as the maximum value (Max value in the equation below) for data analysis. To this cell plate, 25 µL of cell viability chemiluminescence detection reagent was added per well, followed by incubation at room temperature for 10 minutes to stabilize the luminescence signal. A multi-label analyzer was used for reading.
The raw data were converted into inhibition rates using the equation (Sample - Min) / (Max - Min) * 100%. The IC50 values were then determined by fitting a four-parameter curve (using the "log(inhibitor) vs. response - Variable slope" model in GraphPad Prism). Min: wells treated with 0.5% DMSO; Max: Day 0 wells. Table 1 provides the inhibitory activity of the compounds of the invention on MV-4-11 cell proliferation. Table 1: Compound Inhibitory Activity against NMT1 Enzyme (IC50) and Anti-proliferative Activity against MV-4-11 Cell line (IC50)

NMT1 enzyme = biological target: T1, NMT1 enzyme (Homo sapiens, UniProt P30419); test: Inhibitory activity on NMT1 enzyme catalysis (fluorescence intensity assay); type: biochemical
T1 sequence (P30419 1-496): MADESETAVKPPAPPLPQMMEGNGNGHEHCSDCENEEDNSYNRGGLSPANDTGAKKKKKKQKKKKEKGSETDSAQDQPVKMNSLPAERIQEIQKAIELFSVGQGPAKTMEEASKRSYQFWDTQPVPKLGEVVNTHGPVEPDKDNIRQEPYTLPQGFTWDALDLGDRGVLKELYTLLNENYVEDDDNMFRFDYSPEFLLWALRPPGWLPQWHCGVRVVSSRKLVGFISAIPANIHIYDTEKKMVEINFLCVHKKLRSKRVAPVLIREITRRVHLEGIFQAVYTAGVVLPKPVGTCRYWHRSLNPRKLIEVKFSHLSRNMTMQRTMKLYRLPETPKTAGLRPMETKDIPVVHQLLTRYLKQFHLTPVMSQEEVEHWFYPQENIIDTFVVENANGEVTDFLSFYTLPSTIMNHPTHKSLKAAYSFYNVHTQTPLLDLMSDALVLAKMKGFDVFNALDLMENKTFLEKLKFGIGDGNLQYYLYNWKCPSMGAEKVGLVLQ
Protocol: This study evaluated the ability of the compounds of the invention to inhibit NMT1 catalytic activity in vitro. […] The final concentration of the NMT1 enzyme was 6 nM, the final concentration of CPM (Reactive thiol fluorescence probe, Invitrogen, D346) was 1 µM, the final concentration of HSPP60 SRC was 20 µM, and the final concentration of DMSO was 0.5%.
Compounds were dissolved in DMSO to obtain 10 mM stock solutions. Dose-response solutions were prepared with a top endpoint compound concentration of 3 mM, followed by three-fold serial dilutions in DMSO, totaling ten data points. […] Then, 2.5 µL of the NMT1 enzyme working solution was added to the 384-well assay plate, followed by incubation at 25 °C for 10 minutes. Subsequently, 5 µL of the CPM and myristoyl-CoA working solution was added, the plate was centrifuged at 1000 rpm for 1 minute, and then 2.5 µL of the HSPP60 SRC working solution was added to initiate the reaction. The reaction was incubated at 25 °C for 45 minutes.
The IC50 curve of the compounds was fitted using the software XLfit 5.5.0 according to the nonlinear regression equation.

[1] = 6 nM NMT1 enzyme, 1.25 µM myristoyl-CoA, 20 µM HSPP60 SRC peptide, 45 minutes at 25 °C, read-out: NMT1 (IC50)

| SMILES | IC50 (MV-4-11 cells; MV4-11, 72 h) [nM] | IC50 (NMT1 enzyme; [1]) [nM] | further results |
| --- | --- | --- | --- |
| Cc1c(NS(=O)(=O)c2c(Cl)cc(-c3ccc4c(c3)N3CCNC[C@@H]3CO4)cc2Cl)c(CC(C)C)nn1C [Compound 60] | – | – | IC50 (MV-4-11 cells; Homo sapiens, MV4-11, 72 h): 152 nM; IC50 (NMT1 enzyme): 7.95 nM |
| Cc1nn(C)c(C)c1NS(=O)(=O)c1c(Cl)cc(N2CCc3sc4c(c3C2)CNCC4)cc1Cl [Compound 65] | 21.1 | 3.51 | – |
| Cc1c(NS(=O)(=O)c2c(Cl)cc(-c3ccnc(N4CCNCC4)c3)cc2Cl)c(CC(C)C)nn1C [PCLX-001, reference compound] | – | – | IC50 (MV-4-11 cells; Homo sapiens, MV4-11, 72 h): 75.3 nM; IC50 (MV-4-11 cells): 74.3 nM |
| Cc1c(NS(=O)(=O)c2c(Cl)cc(-c3ccc4sc5c(c4c3)CCNC5)cc2Cl)c(CC2CC2)nn1C [Compound B25] | – | – | IC50 (MV-4-11 cells; Homo sapiens, MV4-11, 72 h): 10.4 nM; IC50 (NMT1 enzyme; read-out: NMT1 (IC50), 6 nM NMT1 enzyme, 1.25 µM myristoyl-CoA, 20 µM HSPP60 SRC peptide, 45 minutes at 25 °C): 2.62 nM |
| Cc1c(NS(=O)(=O)c2c(Cl)cc(-c3ccc4c(c3)N3CCNC[C@H]3CO4)cc2Cl)c(CC(C)C)nn1C [Compound 57] | – | – | IC50 (MV-4-11 cells; Homo sapiens, MV4-11, 72 h): 144 nM; IC50 (NMT1 enzyme): 8.76 nM |
| COCc1nn(C)c(C)c1NS(=O)(=O)c1c(Cl)cc(-c2ccc3sc4c(c3c2)CNCC4)cc1Cl [Compound 15] | – | – | IC50 (MV-4-11 cells; Homo sapiens, MV4-11, 72 h): 78.6 nM; IC50 (NMT1 enzyme): 4.73 nM |
| Cc1nn(C)c(C)c1NS(=O)(=O)c1c(Cl)cc(-c2ccn3nc4c(c3c2)CNCC4)cc1Cl [Compound 50] | 21.9 | 3.79 | – |
| CCc1nn(C)c(C)c1NS(=O)(=O)c1c(Cl)cc(-c2ccc3oc4c(c3c2)CNCC4)cc1Cl [Compound 46] | 18.8 | 3.96 | – |
| Cc1c(NS(=O)(=O)c2c(Cl)cc(-c3ccc4sc5c(c4c3)CNCC5)cc2Cl)c(CO)nn1C [Compound 14] | 145 | 7.89 | – |
| Cc1c(NS(=O)(=O)c2ccc(-c3ccc4sc5c(c4c3)CNCC5)cc2)c(CC(F)(F)F)nn1C [Compound B40] | – | – | IC50 (MV-4-11 cells; Homo sapiens, MV4-11, 72 h): 11.3 nM; IC50 (NMT1 enzyme): 2.7 nM |
| CCc1nn(C)c(C)c1NS(=O)(=O)c1c(Cl)cc(-c2ccn3nc4c(c3c2)CNCC4)cc1Cl [Compound 49] | 16.8 | 3.64 | – |
| CCc1nn(C)c(C)c1NS(=O)(=O)c1c(Cl)cc(-c2ccc3sc4c(c3c2)CCNC4)cc1Cl [Compound 55] | 26.2 | 3.97 | – |
| Cc1nn(C)c(C)c1NS(=O)(=O)c1c(Cl)cc(N2CCn3nc4c(c3C2)CNCC4)cc1Cl [Compound 71] | 25.9 | 3.79 | – |
| Cc1c(NS(=O)(=O)c2c(Cl)cc(-c3ccc4sc5c(c4c3)CNCC5)cc2Cl)c(C2CC2)nn1C [Compound 4] | 25.8 | 3.64 | – |
| Cc1nn(C)c(C)c1NS(=O)(=O)c1c(Cl)cc(-c2ccc3sc4c(c3c2)CCNC4)cc1Cl [Compound 56] | 29.7 | 4.21 | – |
| Cc1c(NS(=O)(=O)c2c(Cl)cc(N3CCn4nc5c(c4C3)CNCC5)cc2Cl)c(CC(C)C)nn1C [Compound 69] | 21.9 | 3.75 | – |

Second part, led by results:

| IC50 (MV-4-11 cells; MV4-11, 72 h) [nM] | IC50 (NMT1 enzyme; [1]) [nM] | SMILES | further results |
| --- | --- | --- | --- |
| 3.61 | 2.03 | Cc1c(NS(=O)(=O)c2c(Cl)cc(N3CCc4sc5c(c4C3)CNCC5)cc2Cl)c(CCF)nn1C [Compound B46] | – |
| 20.4 | 3.67 | Cc1c(NS(=O)(=O)c2ccc(-c3ccc4sc5c(c4c3)CCNC5)cc2)c(CC(F)F)nn1C [Compound B63] | – |
| 21.9 | 3.1 | Cc1nn(C)c(C)c1NS(=O)(=O)c1ccc(-c2ccc3oc4c(c3c2)CNCC4)cc1Cl [Compound B3] | – |
| 14.4 | 2.67 | Cc1nn(C)c(C)c1NS(=O)(=O)c1ccc(-c2ccc3sc4c(c3c2)CNCC4)cc1Cl [Compound B1] | – |
| 16.6 | 2.21 | Cc1c(NS(=O)(=O)c2ccc(-c3ccc4sc5c(c4c3)CNCC5)cc2Cl)c(CC(F)(F)F)nn1C [Compound B37] | – |
| 9.27 | 2.08 | Cc1c(NS(=O)(=O)c2c(Cl)cc(-c3ccc4sc5c(c4c3)CCNC5)cc2Cl)c(CCF)nn1C [Compound B44] | – |
| 27 | 5.21 | Cc1c(NS(=O)(=O)c2ccc(-c3ccc4oc5c(c4c3)CNCC5)cc2Cl)c(CC(F)F)nn1C [Compound B61] | – |
| 62.8 | – | Cc1c(NS(=O)(=O)c2ccc(-c3ccc4sc5c(c4c3)CCNC5)cc2Cl)c(CC(F)F)nn1C [Compound B60] | – |
| 10.1 | 2.39 | CCc1nn(C)c(C)c1NS(=O)(=O)c1ccc(-c2ccc3sc4c(c3c2)CNCC4)cc1 [Compound B10] | – |
| 13.5 | 2.52 | CCc1nn(C)c(C)c1NS(=O)(=O)c1ccc(-c2ccc3oc4c(c3c2)CNCC4)cc1Cl [Compound B9] | – |
| 21.7 | 3.07 | Cc1c(NS(=O)(=O)c2ccc(-c3ccc4sc5c(c4c3)CNCC5)cc2Cl)c(CC#N)nn1C [Compound B19] | – |
| 25.9 | 3.06 | Cc1c(NS(=O)(=O)c2ccc(-c3ccc4oc5c(c4c3)CNCC5)cc2Cl)c(CC(C)C)nn1C [Compound B14] | – |
| 15.8 | 2.94 | Cc1nn(C)c(C)c1NS(=O)(=O)c1ccc(-c2ccc3sc4c(c3c2)CNCC4)cc1 [Compound B4] | – |
| 34.9 | 3.56 | Cc1c(NS(=O)(=O)c2ccc(-c3ccc4sc5c(c4c3)CCNC5)cc2Cl)c(CC#N)nn1C [Compound B20] | – |
| 7.48 | 2.47 | Cc1c(NS(=O)(=O)c2ccc(-c3ccc4sc5c(c4c3)CNCC5)cc2)c(CC(F)F)nn1C [Compound B62] | – |
| 23.3 | 3.76 | Cc1nn(C)c(C)c1NS(=O)(=O)c1ccc(-c2ccc3oc4c(c3c2)CNCC4)cc1 [Compound B6] | – |
| 8.97 | 2.08 | Cc1c(NS(=O)(=O)c2c(Cl)cc(N3CCc4oc5c(c4C3)CCNC5)cc2Cl)c(CC(F)F)nn1C [Compound B58] | – |
| 19.5 | 2.37 | Cc1c(NS(=O)(=O)c2ccc(-c3ccc4sc5c(c4c3)CCNC5)cc2Cl)c(CCF)nn1C [Compound B49] | – |
| 6.05 | 2.51 | Cc1c(NS(=O)(=O)c2ccc(-c3ccc4sc5c(c4c3)CNCC5)cc2)c(CCF)nn1C [Compound B51] | – |
| 9.68 | 2.08 | Cc1c(NS(=O)(=O)c2ccc(-c3ccc4sc5c(c4c3)CNCC5)cc2Cl)c(CC2CC2)nn1C [Compound B27] | – |
| 61.8 | 5.03 | Cc1c(NS(=O)(=O)c2c(Cl)cc(-c3ccc4oc5c(c4c3)CNCC5)cc2Cl)c(CC(F)(F)F)nn1C [Compound B34] | – |
| 19.6 | 3.49 | Cc1c(NS(=O)(=O)c2c(Cl)cc(-c3ccc4oc5c(c4c3)CNCC5)cc2Cl)c(CC(F)F)nn1C [Compound B56] | – |
| 12.3 | 2.59 | Cc1c(NS(=O)(=O)c2ccc(-c3ccc4sc5c(c4c3)CNCC5)cc2)c(CC2CC2)nn1C [Compound B30] | – |
| 17.8 | 2.98 | CCc1nn(C)c(C)c1NS(=O)(=O)c1ccc(-c2ccc3oc4c(c3c2)CNCC4)cc1 [Compound B12] | – |
| 9.82 | 2.93 | CCc1nn(C)c(C)c1NS(=O)(=O)c1ccc(-c2ccc3sc4c(c3c2)CNCC4)cc1Cl [Compound B7] | – |
